Measured values published in ChEMBL document CHEMBL1124620, “New 1,4-dihydropyridine derivatives combining calcium antagonism and alpha-adrenolytic properties” (J Med Chem, 1989).

What was measured:
[1] = biological target: T1, Adrenergic receptor alpha-2 (Homo sapiens, UniProt P08913+P18825+P18089); assay: In vitro ability to inhibit norepinephrine binding to alpha-2 adrenergic receptor of guinea pig vas deferens; type: tissue-based, Cavia porcellus; conditions: target entry is the homologue from another species
T1 sequence (P08913 whole entry): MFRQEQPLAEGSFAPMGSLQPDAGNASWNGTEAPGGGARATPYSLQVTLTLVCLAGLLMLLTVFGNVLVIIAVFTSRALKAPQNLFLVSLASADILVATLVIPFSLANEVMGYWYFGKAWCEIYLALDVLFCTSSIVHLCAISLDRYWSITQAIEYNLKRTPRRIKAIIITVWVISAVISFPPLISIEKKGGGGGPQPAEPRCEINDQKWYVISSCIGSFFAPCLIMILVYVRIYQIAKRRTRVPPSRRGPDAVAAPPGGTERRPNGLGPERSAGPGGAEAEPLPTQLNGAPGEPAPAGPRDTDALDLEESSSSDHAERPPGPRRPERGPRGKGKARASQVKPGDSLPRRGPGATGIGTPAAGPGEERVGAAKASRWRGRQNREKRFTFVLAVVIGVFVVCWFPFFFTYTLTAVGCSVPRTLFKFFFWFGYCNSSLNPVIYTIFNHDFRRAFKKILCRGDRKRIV
T1 sequence (P18825 whole entry): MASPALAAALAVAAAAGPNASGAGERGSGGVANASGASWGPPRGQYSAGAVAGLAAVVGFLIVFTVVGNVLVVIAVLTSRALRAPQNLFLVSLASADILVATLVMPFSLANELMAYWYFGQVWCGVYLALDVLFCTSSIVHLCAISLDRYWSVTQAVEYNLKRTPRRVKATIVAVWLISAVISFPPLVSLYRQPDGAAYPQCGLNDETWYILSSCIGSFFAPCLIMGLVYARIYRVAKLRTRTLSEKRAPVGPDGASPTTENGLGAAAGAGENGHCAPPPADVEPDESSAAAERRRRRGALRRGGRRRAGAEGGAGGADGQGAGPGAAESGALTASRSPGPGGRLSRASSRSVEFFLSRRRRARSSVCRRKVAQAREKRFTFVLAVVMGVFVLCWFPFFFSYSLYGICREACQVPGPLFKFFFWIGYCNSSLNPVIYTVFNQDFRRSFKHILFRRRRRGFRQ
T1 sequence (P18089 whole entry): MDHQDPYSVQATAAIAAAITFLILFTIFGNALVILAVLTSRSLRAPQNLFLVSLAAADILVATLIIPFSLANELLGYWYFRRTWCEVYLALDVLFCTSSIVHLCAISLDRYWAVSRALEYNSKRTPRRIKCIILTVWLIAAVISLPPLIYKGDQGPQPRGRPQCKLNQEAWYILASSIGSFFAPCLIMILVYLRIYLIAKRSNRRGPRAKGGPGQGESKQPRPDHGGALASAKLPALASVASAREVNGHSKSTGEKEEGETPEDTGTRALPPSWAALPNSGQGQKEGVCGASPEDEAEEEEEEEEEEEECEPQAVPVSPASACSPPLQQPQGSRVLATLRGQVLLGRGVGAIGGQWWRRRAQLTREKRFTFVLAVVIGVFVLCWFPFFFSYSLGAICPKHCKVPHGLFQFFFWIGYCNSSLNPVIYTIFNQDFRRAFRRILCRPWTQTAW

[2] = biological target: T2, Adrenergic receptor alpha-2 (Rattus norvegicus, UniProt P22086+P19328+P22909); assay: Alpha-2-adrenolytic activity was assessed from the ability to inhibit [3H]yohimbine binding to rat cerebral cortex preparation; type: tissue-based
T2 sequence (P22086 whole entry): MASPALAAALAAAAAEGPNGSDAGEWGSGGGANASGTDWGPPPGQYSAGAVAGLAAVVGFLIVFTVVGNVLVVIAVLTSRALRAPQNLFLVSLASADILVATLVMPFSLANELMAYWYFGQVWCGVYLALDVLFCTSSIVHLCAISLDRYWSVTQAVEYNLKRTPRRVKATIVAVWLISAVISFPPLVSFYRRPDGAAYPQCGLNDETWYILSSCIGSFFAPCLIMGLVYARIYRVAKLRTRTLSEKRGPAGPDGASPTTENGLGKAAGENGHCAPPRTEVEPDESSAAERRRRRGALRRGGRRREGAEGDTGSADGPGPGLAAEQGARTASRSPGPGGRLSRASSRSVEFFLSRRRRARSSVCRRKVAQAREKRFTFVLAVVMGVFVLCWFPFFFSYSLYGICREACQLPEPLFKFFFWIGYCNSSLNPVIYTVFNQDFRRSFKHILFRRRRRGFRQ
T2 sequence (P19328 whole entry): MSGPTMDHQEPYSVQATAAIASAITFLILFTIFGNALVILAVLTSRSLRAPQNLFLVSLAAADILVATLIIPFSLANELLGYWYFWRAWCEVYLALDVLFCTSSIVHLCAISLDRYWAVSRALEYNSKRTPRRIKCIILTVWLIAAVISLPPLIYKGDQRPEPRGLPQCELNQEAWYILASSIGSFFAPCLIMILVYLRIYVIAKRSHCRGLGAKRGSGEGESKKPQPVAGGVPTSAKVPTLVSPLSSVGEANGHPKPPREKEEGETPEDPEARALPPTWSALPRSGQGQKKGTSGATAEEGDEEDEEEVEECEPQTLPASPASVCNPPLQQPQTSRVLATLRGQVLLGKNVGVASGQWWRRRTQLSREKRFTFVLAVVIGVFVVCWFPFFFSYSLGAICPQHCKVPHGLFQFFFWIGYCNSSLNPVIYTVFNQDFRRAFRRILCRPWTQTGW
T2 sequence (P22909 whole entry): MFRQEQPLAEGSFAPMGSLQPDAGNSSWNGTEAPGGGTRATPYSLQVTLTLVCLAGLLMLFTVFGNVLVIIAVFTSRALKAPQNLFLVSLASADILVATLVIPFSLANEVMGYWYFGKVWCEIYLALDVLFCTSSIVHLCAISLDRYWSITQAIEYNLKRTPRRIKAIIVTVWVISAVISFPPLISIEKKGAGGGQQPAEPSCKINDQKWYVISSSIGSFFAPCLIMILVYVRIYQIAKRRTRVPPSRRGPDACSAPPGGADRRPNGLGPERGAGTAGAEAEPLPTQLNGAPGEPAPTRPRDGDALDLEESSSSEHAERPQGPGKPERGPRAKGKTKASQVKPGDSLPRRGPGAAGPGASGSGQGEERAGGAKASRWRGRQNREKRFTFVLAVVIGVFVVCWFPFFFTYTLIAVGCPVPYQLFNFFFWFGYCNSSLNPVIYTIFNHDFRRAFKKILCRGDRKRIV

[3] = biological target: T1, Adrenergic receptor alpha-2; assay: Alpha-2-adrenolytic activity was assessed in vitro from the ability to inhibit norepinephrine binding to guinea pig vas deferens; design: species or system Cavia porcellus; conditions: target entry is the homologue from another species

SMILES | IC50 [1] | other results
CO/C(O)=C1\C(C)=NC(C)=C(C(=O)OCCN(C)C(c2ccccc2)C2CCCCC2)C1c1cccc([N+](=O)[O-])c1.Cl (stereo not given) | > 0.0001 M | –
CO/C(O)=C1\C(C)=NC(C)=C(C(=O)OCCN2CCC(n3c(O)nc4ccccc43)CC2)C1c1cccc([N+](=O)[O-])c1 (stereo not given) | >> 1e-6 M | –
CO/C(O)=C1\C(C)=NC(C)=C(C(=O)OCCN(C)CC2COc3ccccc3O2)C1c1cccc([N+](=O)[O-])c1.Cl (stereo not given) | > 1e-06 M | –
COC(=O)C1=C(C)NC(C)=C(C(=O)OCCN(C)C[C@H]2COc3ccccc3O2)[C@@H]1c1cccc([N+](=O)[O-])c1.Cl (stereo in doubt; 6a) | >> 1e-6 M | –
COC(=O)C1=C(C)NC(C)=C(C(=O)OCCN(C)C[C@H]2COc3ccccc3O2)[C@@H]1c1cccc([N+](=O)[O-])c1.Cl (stereo in doubt; 6b) | > 0.0001 M | –
CO/C(O)=C1\C(C)=NC(C)=C(C(=O)OC(C)CN(C)CC2COc3ccccc3O2)C1c1cccc([N+](=O)[O-])c1.Cl (stereo not given) | >> 0.00001 M | –
CO/C(O)=C1\C(C)=NC(C)=C(C(=O)OCCN(C)CC2COc3ccccc3O2)C1c1ccccc1[N+](=O)[O-] (stereo not given) | > 1e-06 M | –
CO/C(O)=C1\C(C)=NC(C)=C(C(=O)OCCN(C)C(C)COc2ccccc2)C1c1cccc([N+](=O)[O-])c1.Cl (stereo not given) | – | pA2 [1]: 6.7
CC1=NC(C)=C(C(=O)OC(C)CN(C)CC2COc3ccccc3O2)C(c2cccc([N+](=O)[O-])c2)/C1=C(\O)OC(C)C.Cl (stereo not given) | – | IC50 [2]: 2000 nM; IC50 [3]: >> 1e-6 M
